Measurements published in US5773236A, “Assay for glutathiane transferase using polyhaloaryl-substituted reporter molecules” (Molecule Probes, Inc., priority 1997, dated 1998).
“Also recorded” adds a separate entry of the source.

Experiments:
[1] = cited from earlier work
[2] = tested on: Bovine pulmonary aorta endothelial cells (BPAEC); experiment: Glutathione adduct formation and fate of substrate in cultured animal cells, HPLC (Example 66); assay type: cell-based; settings: for GSH adduct formation in cells: 37° C., HPLC
Protocol: The solutions are mixed overnight with three volumes of ethyl acetate followed by centrifugation at 15,000×g for 30 min to separate the organic and aqueous layers. HPLC analysis using a Rainin HPLC equipped with a C18, 5 μm, 100 Å, 4.6×250 mm MICROSORB-MV reverse phase column. […] Products are detected by reading the absorbance at 500 nm.
Bovine pulmonary aorta endothelial cells (BPAEC) are removed from flasks by trypsinization and washed into fresh complete growth medium to yield 10^6 cells/mL. […] Other aliquots of the cell suspension are loaded with the same substrates for 1 hour, rinsed into fresh complete medium, then incubated in the absence of substrate for an additional 3 hr at 37° C. to look for retention and efflux of fluorescent products. At the end of each incubation period the cells are removed by centrifugation and the supernate is retained. The cell pellets are resuspended in 1 mL of E-Pure water and subjected to three freeze-thaw cycles (-80° C. to 37° C.).

[3] = tested on: Bovine pulmonary aorta endothelial cells (BPAEC); experiment: Retention of fluorescence in fixed cells (Example 66); assay type: cell-based; settings: 3.7% formaldehyde 30 minutes, 0.2% Triton X-100 30 minutes
[4] = tested on: NIH-3T3 cells; experiment: Hydrolysis of esterase substrates and product retention in live cells, flow cytometry (Example 65); assay type: cell-based
Protocol: NIH-3T3 cells obtained from American Type Culture Collection Co., Rockville, Md. are used. They are grown in a humidified atmosphere of 5% CO2 in D-MEM supplemented with 10% bovine calf serum (BCS), 50 μg/mL gentamycin, 300 μg/mL L-glutamine and 10 mM HEPES, pH 7.4. Stock solutions of Compound 4 (Example 3), 10 mM in DMSO, and Compound 48 (Example 50), 5 mM in DMSO, are prepared. NIH-3T3 cells are trypsinized, washed with phosphate-buffered saline (PBS), pH 7.2 and resuspended in D-MEM with 10% BCS. To 1 mL of the cell suspension is added the dye stock solution to obtain a final dye concentration of 0.1 mM. Incubation is carried out at 37° C. for 30 minutes followed by incubation on ice for 30 minutes. Cells are centrifuged to form a pellet, the supernatant is discarded and the cells are washed twice with PBS, pH 7.2 and suspended in the same buffer. Cells are analyzed by flow cytometry using the Becton-Dickinson FACS Vantage flow cytometer. After analysis on the flow cytometer, cells are placed at 37° C. and analyzed by flow cytometry at frequent intervals over a period of 75 minutes. Cells stained with either of the dyes are at least 20-fold brighter than the autofluorescent control cells. Approximately 45% of Compound 4 and 35% of Compound 48 are still retained by the cells after 75 minutes of incubation at 37° C.

[5] = tested on: β-galactosidase; experiment: Reactivity with thiol groups of proteins (Example 51); assay type: biochemical
Protocol: To test the specificity of the Compound 1 reaction with GSH versus thiol-containing proteins, β-galactosidase (a protein that has several free thiols) is dissolved at 5 mg/mL in deoxygenated 0.1M phosphate, 0.1M NaCl, pH 7.5, and reacted under anaerobic conditions with 5-(pentafluorobenzoylamino)fluorescein diacetate (Compound 4, Example 3) or Compound 1 dissolved at 10 mg/mL in DMSO at a molar ratio of the reagent to protein of 15. This assay is performed both in the presence and absence of 30 mM N-ethyl maleimide (NEM) as an effective thiol-blocking reagent. The reactions are incubated at room temperature for 1 hour, stopped by the addition of hydroxylamine, pH 9 to a final concentration of 0.15M, and incubated for 2 more hours to hydrolyze the acetate groups. […] Consequently, no reaction of either Compound 4 or Compound 1 with β-galactosidase is detected under the described conditions.

[6] = tested on: 3T3 or BPAE cells; experiment: Intracellular products of tracers by gel electrophoresis (Example 67); assay type: cell-based; settings: 5 μM, 1 hr, 37° C.
Protocol: (§1) Cultures of either 3T3 or BPAE cells are treated with 5 μM solutions of either Compound 4,5-(pentachlorobenzoylamino)fluorescein diacetate, 5-pentafluorobenzenesulfonylamino)fluorescein diacetate, or 5-chloromethylfluorescein diacetate (CMFDA, Molecular Probes, Inc.) for 1 hr at 37° C. The cells are spun, resuspended in distilled water and lysed by repeated freezing and thawing. 20 μL of the cell lysate supernatant is diluted with 30 μL of SDS-PAGE sample buffer, containing β-mercaptoethanol. The cell pellets are dispersed in 50 μL of water. 20 μL of each sample is added to 30 μL of the same sample buffer. The samples are heated at 95° C. for 5 min. and loaded on 4-20% polyacrylamide gradient minigels. At the completion of the run the gels are observed with UV excitation.

[7] = tested on: 3T3 or BPAE cells; experiment: Intracellular products of tracers by TLC and HPLC (Example 67); assay type: cell-based; settings: 5 μM, 1 hr, 37° C.
Protocol: Reaction mixtures with and without GST using Compound 1 as the substrate, are prepared as described in Example 48. The solutions are mixed overnight with three volumes of ethyl acetate followed by centrifugation at 15,000×g for 30 min to separate the organic and aqueous layers. HPLC analysis using a Rainin HPLC equipped with a C18, 5 μm, 100 Å, 4.6×250 mm MICROSORB-MV reverse phase column. Products are separated in 30 min with a gradient of 5% to 95% solvent B in Solvent A at a flow rate of 1 mL/min, where solvent A is 0.1M triethylammonium acetate, pH 7.0, and solvent B is acetonitrile (see FIG. 1). Products are detected by reading the absorbance at 500 nm. Peaks are identified and, if desired, quantitated by comparing retention times with authentic samples of the glutathione adduct of Compound 45 (Example 45).
as §1
Alternatively, the above samples are analyzed by TLC and by HPLC, as described in Examples 48 and 52. […] Coinjection with authentic Compound 1 confirms the identity of the substrate peak and coinjection with the authentic Compound 1-GSH adduct (Example 45) confirms the identify of the other fluorescent product.

[8] = 15 min, 5 μM substrate, continuous
[9] = 1 hr, washed, then additional 3 hr at 37° C.
[10] = 4 hrs, 5 μM substrate, continuous

For O=S1(=O)OC(c2cc(Br)c(O)c(Br)c2)(c2cc(Br)c(O)c(Br)c2)c2ccccc21 [tetrabromophenolsulfonephthalein], the “reaction with GSH in the presence of GST enzymes” value [1] is given as “react specifically with GSH in the presence of GST enzymes”.
In the case of CC(=O)Oc1ccc2c(c1)Oc1cc(OC(C)=O)ccc1C21OC(=O)c2cc(NC(=O)c3ccccc3)ccc21 [Compound 5, 5-(benzoylamino)fluorescein diacetate], the “GSH adduct formation in cells” value ([2]; 5 μM substrate) is reported as “does not”, the “EXTRACELLULAR Free dye” value [2, 8] is reported as 4829 relative fluorescence units and the “EXTRACELLULAR Free dye, fraction of total fluorescence” value (“EXTRACELLULAR Free dye, fraction” below) [2, 8] is reported as 91.5%. The “INTRACELLULAR Free dye” value [2, 8] was 450 relative fluorescence units, the “INTRACELLULAR Free dye, fraction of total fluorescence” value (shortened to “INTRACELLULAR Free dye, fraction”) [2, 8] was 8.5% and the “EXTRACELLULAR Free dye” value [2, 9] was 469 relative fluorescence units. For the same molecule, the “EXTRACELLULAR Free dye, fraction” value [2, 9] was 100%, the “EXTRACELLULAR Free dye” value [2, 10] was 8627 relative fluorescence units and the “EXTRACELLULAR Free dye, fraction” value [2, 10] was 99.1%. The “INTRACELLULAR Free dye” value [2, 10] was 78 relative fluorescence units, the “INTRACELLULAR Free dye, fraction” value [2, 10] was 0.9% and the “hydrolysis product detectable in washed cells” value ([2]; washed at one hour then incubated additional 3 hours) was “not detectable”. The “fluorescence after fixation and permeabilization” value [3] was “essentially nonfluorescent”.
For O=[N+]([O-])c1ccc(Cl)c([N+](=O)[O-])c1 [1-Chloro-2,4-dinitrobenzene], the “reaction with GSH in the presence of GST enzymes” value [1] is given as “react specifically with GSH in the presence of GST enzymes”.
With CC(=O)Oc1ccc2c(c1)Oc1cc(OC(C)=O)ccc1C21OC(=O)c2cc(NC(=O)c3c(F)c(F)c(F)c(F)c3F)ccc21 [Compound 4, 5-(pentafluorobenzoylamino)fluorescein diacetate] the “brightness versus autofluorescent control cells” value ([4]; 0.1 mM dye, 37° C., 30 minutes then on ice 30 minutes) was “at least 20 fold”, the “dye retained by the cells” value ([4]; after 75 minutes of incubation at 37° C.) was “Approximately 45%” and the “fluorescent proteins formed, gel electrophoresis” value ([5]; molar ratio of reagent to protein 15) was “no fluorescent proteins are formed”. The “reaction with β-galactosidase, TLC” value ([5]; molar ratio of reagent to protein 15, pH 7.5, 1 hour, with and without 30 mM NEM) was “no reaction”, the “fluorescent bands on gel (region of the tracking dye)” value [6] was “Two closely spaced green fluorescent bands” and the “protein adduct bands on gel” value [6] was “No other band corresponding to proteins is visible”. The “GSH adduct formation in cells” value ([2]; 5 μM substrate) was “hydrolyzed and conjugated to glutathione; also recorded: gives rise to glutathione (GSH) adducts”, the “EXTRACELLULAR Free dye” value [2, 8] was 3350 relative fluorescence units and the “EXTRACELLULAR Free dye, fraction” value [2, 8] was 89.2%. For the same molecule, the “EXTRACELLULAR GSH adduct” value [2, 8] was 97 relative fluorescence units, the “EXTRACELLULAR GSH adduct, fraction of total fluorescence” value (“EXTRACELLULAR GSH adduct, fraction” below) [2, 8] was 2.6% and the “INTRACELLULAR Free dye” value [2, 8] was 237 relative fluorescence units. The “INTRACELLULAR Free dye, fraction” value [2, 8] was 6.3%, the “INTRACELLULAR GSH adduct” value [2, 8] was 72 relative fluorescence units and the “INTRACELLULAR GSH adduct, fraction of total fluorescence” value (from here on “INTRACELLULAR GSH adduct, fraction”) [2, 8] was 1.9%. For the same molecule, the “EXTRACELLULAR Free dye” value [2, 9] was 361 relative fluorescence units, the “EXTRACELLULAR Free dye, fraction” value [2, 9] was 85.3% and the “EXTRACELLULAR GSH adduct” value [2, 9] was 62 relative fluorescence units. The “EXTRACELLULAR GSH adduct, fraction” value [2, 9] was 14.7%, the “INTRACELLULAR Free dye” value [2, 9] was < 1 relative fluorescence units and the “INTRACELLULAR Free dye, fraction” value [2, 9] was under 0.2%. The “INTRACELLULAR GSH adduct” value [2, 9] was < 1 relative fluorescence units, the “INTRACELLULAR GSH adduct, fraction” value [2, 9] was under 0.2% and the “EXTRACELLULAR Free dye” value [2, 10] was 4498 relative fluorescence units. For the same molecule, the “EXTRACELLULAR Free dye, fraction” value [2, 10] was 86.8%, the “EXTRACELLULAR GSH adduct” value [2, 10] was 642 relative fluorescence units and the “EXTRACELLULAR GSH adduct, fraction” value [2, 10] was 12.4%. For the same molecule, the “INTRACELLULAR Free dye” value [2, 10] was 23 relative fluorescence units, the “INTRACELLULAR Free dye, fraction” value [2, 10] was 0.4% and the “INTRACELLULAR GSH adduct” value [2, 10] was 21 relative fluorescence units. For the same molecule, the “INTRACELLULAR GSH adduct, fraction” value [2, 10] was 0.4%, the “fluorescence after fixation and permeabilization” value [3] was “appreciably fluorescent” and the “products by HPLC” value ([7]; HPLC) was “two peaks”. The “products by TLC” value ([7]; TLC) was “formation of a GSH adduct”.
